What was measured:
Assay type in all cases: functional
[1] = system: Athelia rolfsii; experiment: Fungicidal activity against Athelia rolfsii assessed as growth inhibition at 100 ppm after 5 days by agar dilution test; conditions: Agroathelia rolfsii, 120 h; read-out: GI
[2] = system: Athelia rolfsii; experiment: Fungicidal activity against Athelia rolfsii assessed as growth inhibition at 10 ppm after 5 days by agar dilution test; conditions: Agroathelia rolfsii, 120 h; read-out: GI
[3] = system: Pythium; experiment: Fungicidal activity against Pythium sp. assessed as growth inhibition at 100 ppm after 5 days by agar dilution test; conditions: 120 h, read-out: GI
[4] = system: Pythium; experiment: Fungicidal activity against Pythium sp. assessed as growth inhibition at 10 ppm after 5 days by agar dilution test; conditions: 120 h, read-out: GI

| SMILES | inhibition of growth at 100 ppm [1] [%] | inhibition of growth at 10 ppm [2] [%] | inhibition of growth at 100 ppm [3] [%] | inhibition of growth at 10 ppm [4] [%] |
| --- | --- | --- | --- | --- |
| COP(=S)(OC)OCCC(C)CCC=C(C)C (configuration not stated) | 76.9 | 36.2 | 30 | – |
| COP(=S)(OC)Oc1cc(C(C)C)ccc1C | 85.2 | 37.5 | 61.1 | 22.8 |
| COP(=S)(OC)Oc1cc(C)ccc1C(C)C | 84.3 | 29.3 | 67.4 | 32.5 |
| C=CCc1ccc(OP(=S)(OC)OC)c(OC)c1 | 90.5 | 38.5 | 44.9 | – |
| COP(=S)(OC)OCCc1ccccc1 | 100 | 56.6 | 89.8 | 39.6 |
| CCOP(=S)(OCC)OCCC(C)CCC=C(C)C (configuration not stated) | 31.3 | – | 10.2 | – |
| CCOP(=S)(OCC)Oc1cc(C(C)C)ccc1C | 58.2 | – | 19.8 | – |
| CCOP(=S)(OCC)Oc1cc(C)ccc1C(C)C | 56.8 | – | 52.9 | – |
| C=CCc1ccc(OP(=S)(OCC)OCC)c(OC)c1 | 60.2 | – | 34.3 | – |
| CCOP(=S)(OCC)OCCc1ccccc1 | 95.1 | 42.3 | 68.8 | – |
| Cc1ccc(C(C)C)cc1OP(=S)(Oc1cc(C(C)C)ccc1C)c1ccccc1 | 0 | – | 0 | – |
| Cc1ccc(C(C)C)c(OP(=S)(Oc2cc(C)ccc2C(C)C)c2ccccc2)c1 | 0 | – | 1.3 | – |
| CCOP(O)(=S)OCCC(C)CCC=C(C)C (configuration not stated) | 70.7 | 0 | 67 | 15.8 |
| CCOP(O)(=S)Oc1cc(C)ccc1C(C)C (configuration not stated) | 46 | – | 55.7 | – |
| C=CCc1ccc(OP(O)(=S)OCC)c(OC)c1 (configuration not stated) | 24.7 | – | 37.3 | – |
| CCOP(O)(=S)OCCc1ccccc1 (configuration not stated) | 29.2 | – | 61.1 | – |
| CC(C)=CCCC(C)CCO (configuration not stated) [CITRONELLOL] | 23.9 | – | 68.9 | 0 |
| CCOP(=S)(OCCC(C)CCC=C(C)C)OCCC(C)CCC=C(C)C (configuration not stated) [DICITRONELLYL PHOSPHOROTHIONATE] | 30.3 | – | 64.5 | – |
| C=CCc1ccc(OP(=S)(OCC)Oc2ccc(CC=C)cc2OC)c(OC)c1 [DIEUGENOL PHOSPHOROTHIONATE] | 6.1 | – | 34.6 | – |
| CCOP(=S)(Oc1cc(C(C)C)ccc1C)Oc1cc(C(C)C)ccc1C [DIISOTHYMOL PHOSPHOROTHIONATE] | 36.8 | – | 67 | – |
| CCOP(=S)(OCCc1ccccc1)OCCc1ccccc1 [DIPHENETHYL ETHYL PHOSPHOROTHIONATE] | 33.4 | – | 23.3 | – |
| CCOP(=S)(Oc1cc(C)ccc1C(C)C)Oc1cc(C)ccc1C(C)C [DITHYMOL PHOSPHOROTHIONATE] | 30.3 | – | 58.4 | – |
| CCOP(O)(=S)Oc1cc(C(C)C)ccc1C (configuration not stated) [ETHYL ISOTHYMYL HYDROGENPHOSPHOROTHIONATE] | 54.9 | – | 71 | 10.4 |
| C=CCc1ccc(O)c(OC)c1 [EUGENOL] | 67.6 | 5.9 | 92.7 | 7.4 |
| CC(C)OP(=O)(OC(C)C)SCc1ccccc1 [IPROBENFOS] | 100 | 68.8 | 88.5 | 41.7 |
| Cc1ccc(O)c(C(C)C)c1 [ISOTHYMOL] | 72.4 | 38 | 94.3 | 24.2 |
| OCCc1ccccc1 [PHENYLETHYL ALCOHOL] | 0 | – | 50.9 | – |
| Cc1ccc(C(C)C)c(O)c1 [THYMOL] | 71 | 28.3 | 93 | 29.6 |
